Measured values: patent US20230152317A1, “DIAGNOSIS AND TREATMENT OF COVID-19” (priority 2020, published 2023)

Experiments:
[1] = system: human pulmonary microvascular endothelial cells (hPMVEC); assay: Basal intracellular nitric oxide production in hPMVEC (DAF-FM fluorescence) after hyaluronidase treatment
Experimental: Isolation and culture of human pulmonary microvascular endothelial cells (hPMVEC): hPMVEC were isolated from resected human lung as previously described (35, 36). Briefly, human peripheral lung tissue was finely minced, and digested in 0.3% type II collagenase at 37° C. The digested suspension was filtered, centrifuged, and washed in PBS. Endothelial cells were then isolated using magnetic Dynabeads coated with anti-human CD31 antibody. Isolated cells were resuspended in EGM-2 (Lonza #CC-3162) with 10% fetal bovine serum and placed at 37° C. in 5% CO2 until 50% confluent, then harvested and re-purified using anti-CD31-coated magnetic microbeads as above. PMVEC were propagated in EGM-2+10% FBS and 20 mM HEPES on fibronectin-coated flasks and passages 4-9 used.
Hyaluronidase treatment of hPMVEC: PMVEC (2.5×10^4/well) were plated on fibronectin-coated 4-well plates in EGM-2+10% FBS and 20 mM HEPES. After 2 days, media was changed to HBSS (+100 mM HEPES, no bicarb)+0.01% BSA and hPMVEC were treated for 1 h with hyaluronidase (0.5 mg/mL; Sigma #H3506). Following treatment, hPMVEC were loaded with a nitric oxide-sensitive fluorochrome (2 μM DAF-FM DA (Thermo Fisher #D23844) for 1h before lysing with 0.5% SDS in PBS. After centrifugation for 10 min at 1×10^4RCF, the fluorescence of triplicate aliquots of supernatant were measured using a Victor3 multilabel fluorescence microplate reader (Wallac Oy; Perkin Elmer, Inc.) at 485/520 for DAF-FM. The nitric oxide donor DETA NONOate (20 μM; Cayman #82120) was used as the positive control.

COVID-19 patients = conditions: anticoagulant treatment, reference 49; cited from earlier work

For `NCCN(CCN)/[N+]([O-])=N/O` [DETA NONOate], the “increase of nitric oxide production” value ([1]; positive control at 20 μM, compared to untreated controls (data not shown)) was 16%.

In the case of Hyaluronidase, the “decrease of basal intracellular nitric oxide production” value ([1]; hyaluronidase 0.5 mg/mL for 1 h, compared to untreated PMVEC, n=5 separate experiments, P=0.008) is reported as 98% and the “basal intracellular nitric oxide production after treatment (DAF-FM fluorescence)” value ([1]; hyaluronidase 0.5 mg/mL for 1 h, n=5 separate experiments) is reported as 64±87.5 RFUs.

For low molecular weight heparin, the overall survival advantage (COVID-19 patients) is listed as “did not confer an overall survival advantage”.
